The source of these data is US10700298B2, “OLED display panel and electronic device comprising the same” (SHANGHAI TIANMA AM-OLED CO., LTD., priority 2016, dated 2020).

Molecules are shown by their SMILES. ≈ marks a conversion by molar mass, not a printed value.

Data set [1] in a line: Solubility of the hole transporting material in NMP. It counts as physicochemical. As to conditions: N-methylpyrrolidone.
The conditions of data set [2]: in words; material disclosed in CN103108859; cited from earlier work.

As for `Cc1cc(N(c2ccc(-c3ccccc3)cc2)c2ccc(-c3ccc(C(C)C)cc3)cc2)ccc1-c1ccc(N(c2ccc(-c3ccccc3)cc2)c2ccc(-c3ccc(C(C)C)cc3)cc2)cc1` [Example 4], the “solubility in NMP” value in data set [1] was determined as 12 mg/mL (≈ 13.5 mM).

As for `CC(C)c1ccc(-c2ccc(N(c3ccc(-c4ccccc4)cc3)c3ccc(-c4ccc(N(c5ccc(-c6ccccc6)cc5)c5ccc(-c6ccc(C(C)C)cc6)cc5)c(C(C)C)c4)cc3)cc2)cc1` [Example 3], the “solubility in NMP” value in data set [1] turned out to be 12 mg/mL (≈ 13.1 mM).

Consider `c1ccc(-c2ccc(N(c3ccc(-c4ccccc4)cc3)c3ccc(-c4ccc(N(c5ccc(-c6ccccc6)cc5)c5ccc(-c6ccccc6)cc5)c5c4CCCC5)cc3)cc2)cc1` [Comparative Example 3, reference compound], for which, in data set [1], the “solubility in NMP” value was 2.5 mg/mL (≈ 2.95 mM).

As for `Cc1ccc(-c2ccc(N(c3ccc(-c4cccc(C)c4)cc3)c3ccc(-c4ccc(N(c5ccc(-c6ccccc6)cc5)c5ccc(-c6ccc(C)cc6)cc5)c5c4CCCC5)cc3)cc2)cc1` [Example 9], in data set [1], the “solubility in NMP” value was 35 mg/mL (≈ 39.4 mM).

Consider `Cc1ccccc1-c1ccc(N(c2ccc(-c3ccccc3)cc2)c2ccc(-c3ccc(N(c4ccc(-c5ccccc5)cc4)c4ccc(-c5ccccc5C)c5c4CCCC5)c4c3CCCC4)cc2)c2c1CCCC2` [Example 12], for which the “solubility in NMP” value in data set [1] worked out at 21 mg/mL (≈ 21.4 mM).

Take `CC1(C)c2ccccc2-c2ccc(N(c3ccc4c(c3)C3(c5ccccc5-c5ccccc53)c3ccccc3-4)c3ccccc3-c3ccccc3)cc21`: the solubility entry in data set [2] is recorded as “good”.

For the compound `Cc1cccc(-c2ccc(N(c3ccc(-c4cc(C)c(N(c5ccc(-c6cccc(C)c6)c(C)c5)c5ccc(-c6cccc(C)c6)c(C)c5)c(C)c4)cc3)c3ccc(-c4cccc(C)c4)c(C)c3)cc2C)c1` [Example 2], the “solubility in NMP” value in data set [1] was found to be 25 mg/mL (≈ 26.8 mM).

`Cc1cccc(-c2ccc(N(c3ccc(-c4cccc(C)c4)cc3)c3ccc(-c4cc(C)c(N(c5ccc(-c6cccc(C)c6)cc5)c5ccc(-c6cccc(C)c6)cc5)c(C)c4)cc3)cc2)c1` [Example 1]: the “solubility in NMP” value in data set [1] is 15 mg/mL (≈ 17.1 mM).

Turning to `c1ccc(-c2ccc(N(c3ccc(-c4ccccc4)cc3)c3ccc(-c4ccc(N(c5ccc(-c6ccccc6)cc5)c5ccc(-c6ccccc6)cc5)cc4)cc3)cc2)cc1` [Comparative Example 1, reference compound], the “solubility in NMP” value in data set [1] was 1.2 mg/mL (≈ 1.51 mM).

For `Cc1cccc(-c2ccc(N(c3ccc(-c4cccc5c4CCCC5)cc3)c3ccc(-c4ccc(N(c5ccc(-c6cccc(C)c6)cc5)c5ccc(-c6cccc7c6CCCC7)cc5)c5c4CCCC5)cc3)cc2)c1` [Example 10], the “solubility in NMP” value in data set [1] is 19 mg/mL (≈ 19.3 mM).

As for `Cc1cc(N(c2ccc(-c3ccccc3)cc2)c2ccc(-c3cccc4c3CCCC4)cc2)ccc1-c1ccc(N(c2ccc(-c3ccccc3)cc2)c2ccc(-c3cccc4c3CCCC4)cc2)cc1` [Example 11], the “solubility in NMP” value in data set [1] stood at 15 mg/mL (≈ 16.4 mM).
